Reference: PubChem BioAssay AID488890 (Southern Research Specialized Biocontainment Screening …, 2010)
Inconclusive results are not listed. Active and inactive are the calls of the source. No rule for the calls is given here.

These molecules were tested on Mycobacterium tuberculosis non-replicating, growth inhibition (assay: growth inhibition of non-replicating M. tuberculosis (AID 488890)).

Structure (SMILES)	IC50
N#CC(C(=O)Nc1ccccc1)=C1Nc2ccccc2N1	37.8 µM (inactive)
COc1ccc(OC)c(NC(=O)C(=O)NNC(=O)C23CC4CC(CC(C4)C2)C3)c1	5.4 µM
CCC(=O)N/N=C/c1ccc(-c2ccc(Cl)cc2)o1	8.36 µM
O=C(COC(=O)CC1CCCC1)Nc1ccc(Cl)cn1	17.2 µM (inactive)
O=C(OCC(=O)N1CCCC1)c1cc(Br)ccc1Cl	6.94 µM
OC(C#CCN1CCOCC1)c1cccs1 (stereo not given)	7.53 µM
CC(C)=CCN1CCN(CCC2=C(C)CCCC2(C)C)CC1CCO (stereo not given)	7.56 µM
CC(C)(C)NC(=O)C(=O)NNC(=O)c1ccc(C(C)(C)C)cc1	5.82 µM
CC1=NN(C(=O)c2csc(C)c2)C(O)(C(F)(F)F)C1 (stereo not given)	0.49 µM
O=C(Nc1nccs1)c1ccc(Br)cc1	39.5 µM (inactive)
CCOC(=O)CCCNC(=O)COC(=O)c1cc(Br)c(Br)s1	9.34 µM
COc1cccc(-c2cc3nc4c(c(NCC(C)(C)CN(C)C)n3n2)CCCC4)c1	26.2 µM (inactive)
CN(C)Cc1ccccc1Sc1ccc(Br)cc1	27.7 µM (inactive)
O=C(N/N=C/c1cc([N+](=O)[O-])ccc1O)C1CCCCC1	1.97 µM
O=C(CCN1CCCCCC1)c1ccccc1	9.1 µM
CC(C)(C)c1ccccc1OCCOCCN1CCCCCC1	16.2 µM (inactive)
CCCNC(=O)NC(=O)COc1ccc2oc3ccccc3c2c1	5.09 µM
COc1cc(OC)cc(C(=O)NNC(=O)c2ccccn2)c1	11.6 µM (inactive)
Cc1ccc(NC(CC(=O)c2ccccc2)C(=O)O)cc1Cl (stereo not given)	8.32 µM
COc1ccc(CC(=O)OCC(=O)Nc2ccc(Br)cc2)cc1	14.6 µM (inactive)
O=C1NC(=O)C(=Cc2ccc(Oc3ccc([N+](=O)[O-])cc3)cc2)C(=O)N1	16.5 µM (inactive)
CN(C)CCCNc1cc(C(C)(C)C)nc2c(-c3ccc(Cl)cc3)cnn12	5.24 µM
O=C(COc1ccc(Cl)cc1)NNC(=O)c1ccccn1	12.1 µM (inactive)

Structure (SMILES)	IC50
O=C(COC(=O)c1ccccc1Cl)NCCC1=CCCCC1	14.1 µM (inactive)
O=C(c1ccccc1)c1nc[nH]c1C(=O)Nc1ccccc1	11.5 µM (inactive)
O=C(Nc1nnc(-c2ccco2)o1)c1ccc([N+](=O)[O-])s1	22.4 µM (inactive)
Cn1c(SCc2c(F)cccc2Cl)nc2c(c1=O)SCC2	28.2 µM (inactive)
Cc1ccc2c(c1)c(C1=c3ccccc3=NC1=O)c(O)n2C	4.42 µM
Cc1cc(C(=O)COc2cccc3cccnc23)c(C)n1C	5.1 µM
CCOC(=O)c1cnc(Nc2nc3ccccc3o2)nc1CSC(=S)N1CCCCC1	1.49 µM
COc1ccc(C(=O)OCn2nnc3ccccc3c2=O)cc1	28.6 µM (inactive)
Fc1ccc(-c2nnc(-c3ccc(F)cc3)o2)cc1	8.38 µM
Oc1ccccc1CN1CCCC(N2CCN(c3cccc(C(F)(F)F)c3)CC2)C1 (stereo not given)	21.5 µM (inactive)
COC(=O)COc1cccc(NC(=O)c2ccc(Cl)cc2)c1	3.98 µM
CCc1c(C)c2ccc(OCC(=O)OC)cc2oc1=O	9.03 µM
C/C(=N/Nc1ccnc2cc(Cl)ccc12)c1ccc(N)cc1	21.6 µM (inactive)
O=C(Nc1nc(-c2cccs2)cs1)c1ccc([N+](=O)[O-])o1	2.08 µM
Cc1ccccc1-n1ncc2c([N+](=O)[O-])cc([N+](=O)[O-])cc21	4.83 µM
CCCOc1ccc(N2CC(C(=O)Nc3ccccn3)CC2=O)cc1 (stereo not given)	10.9 µM (inactive)
CS(=O)(=O)Nc1cccc2cccnc12	21.4 µM (inactive)
O=C(CCc1c[nH]c2ccccc12)Nc1ncccc1O	15.1 µM (inactive)
Cc1cc(C)n(-c2nc(SCCN(C)C)c3c4c(sc3n2)CCCC4)n1	6.69 µM
Cn1cnc([N+](=O)[O-])c1Sc1ccc([N+](=O)[O-])cc1	19.7 µM (inactive)
Cc1ccc(N/N=C2\CS(=O)(=O)N(C)c3ccsc32)cc1	0.31 µM
CCOc1ccc(OCCSc2ccc(S(=O)(=O)N3CCN(C)CC3)cn2)cc1	15.5 µM (inactive)
Cc1cc(C)n(C(=O)c2ccc([N+](=O)[O-])cc2[N+](=O)[O-])n1	24.3 µM (inactive)

Structure (SMILES)	IC50
Cc1cc(N2CCC(C)CC2)nc(NCc2ccccc2)n1	16.4 µM (inactive)
O=C1CC(N2CCC(C(=O)N3CCCCC3)CC2)C(=O)N1 (stereo not given)	12.3 µM (inactive)
CC1=CC(=O)NP(=O)(Oc2ccc3ccccc3c2)N1 (stereo not given)	7.95 µM
CCOc1ccc(-c2ccc(C=O)o2)c([N+](=O)[O-])c1	19 µM (inactive)
CN1C(c2ccccc2)CC(=NO)CC1c1ccccc1 (stereo not given)	11.3 µM (inactive)
CSc1ccc(NC(=O)Nc2cccn(Cc3ccccc3)c2=O)cc1	19.4 µM (inactive)
Cc1ccc2oc(=O)c3cc(C(=O)NCCCN4CCCCCC4)sc3c2c1	15.8 µM (inactive)
O=C(Nc1ccccc1F)c1ccc(Br)o1	13.4 µM (inactive)
CCc1ccc(OCCCC(=O)NCc2ccco2)cc1	5.18 µM
C/C(CC(=O)Nc1ccc(C)c(Cl)c1)=N\NC(=O)c1ccco1	28.8 µM (inactive)
CSc1nnc(Cc2ccc3c(c2)OCO3)o1	7.56 µM
Cc1cccc(Cc2cnc(NC(=O)C3=NCCN3)s2)c1	4.82 µM
CCCOC(=O)c1ccc(NC(=O)C2C3C=CC(O3)C2C(=O)O)cc1 (stereo not given)	9.27 µM
O=C(Cc1ccccc1)N/N=C/c1ccc([N+](=O)[O-])s1	14 µM (inactive)
CCCOc1ccc(-c2nc(C#N)c(NCCCn3ccnc3)o2)cc1	17 µM (inactive)
CCOc1ccc(C(=O)N/N=C(/C)C2C(=O)c3ccccc3C2=O)cc1	0.47 µM
O=C(N/N=C/c1ccc[nH]1)c1ccc2c(c1)OCO2	8.98 µM
CN(C)CCC(=O)N1c2ccccc2Sc2ccc(Cl)cc21	21 µM (inactive)
CCCN(CCC)S(=O)(=O)c1ccc(C(=O)Nc2nnc(-c3cccc(OC)c3)o2)cc1	11.3 µM (inactive)
CC1=C(/C=C/C(C)=N\NC(=O)c2ccncc2)C(C)(C)CCC1	1.15 µM
Cc1nnc(C)n1/N=C/c1cc(Br)cc(Br)c1O	11.3 µM (inactive)
CCOC(=O)c1cn(Cc2cccc(Cl)c2)nn1	8.03 µM
O=c1[nH]c(O)c(/C=C2/C=CC(c3cc(Cl)ccc3Cl)=N2)c(=O)[nH]1	0.34 µM

Structure (SMILES)	IC50
CCS(=O)(=O)c1ncc(Cl)c(C(=O)Nc2ccc(S(=O)(=O)N(C)c3ccccc3)cc2)n1	7.18 µM
O=C(Oc1ccc(/C=N/O)cc1)c1ccccc1Cl	12.4 µM (inactive)
COC(=O)CCCC(=O)N1CCCC(C(=O)c2ccc(-c3ccccc3)cc2)C1 (stereo not given)	35.8 µM (inactive)
CCC(=O)Nc1nc2ccccc2n1Cc1ccccc1Cl	4.32 µM
COc1ccc(N=Cc2nc(-c3ccccc3)oc2OC(C)=O)cc1	17.4 µM (inactive)
O=C(Nc1nccs1)c1cc2cc(Cl)ccc2oc1=O	3.23 µM
OC(CNCC(c1ccc(Cl)cc1Cl)c1c[nH]c2ccccc12)c1ccccc1 (stereo not given)	10.9 µM (inactive)
Cc1ccc(CCC(=O)Nc2cc(Cl)ccc2Cl)o1	3.79 µM
O=C(c1ccc([N+](=O)[O-])o1)N1CCN(Cc2ccccc2)CC1	2.81 µM
O=c1oc(/C=C/c2ccc([N+](=O)[O-])s2)nc2ccccc12	8.47 µM
Clc1ccc(OCCCNCc2ccccc2)c2ccccc12	5.99 µM
CCCCCn1c(=O)c(C(=O)Nc2nc(CC(=O)OCC)cs2)c(O)c2ccccc21	2.39 µM
O=C(COc1ccc(F)cc1)N/N=C/c1cccc2cccnc12	3.84 µM
COc1cccc(C(=O)OCC(=O)c2ccc(Br)s2)c1OC	9.02 µM
O=C(Oc1cccc([N+](=O)[O-])c1)c1ccc2c(=O)n3c(nc2c1)CCC3	6.82 µM
COc1cccc(/C=N/NC(=O)c2ccoc2C)c1O	1.93 µM
COc1cccc(-c2nc(C=O)cs2)c1	37.2 µM (inactive)
O=C(COc1cccc2ccccc12)Nc1ccc(Cl)cc1C(=O)O	6.24 µM
C/C(=N\NC(=O)c1cc2ccccc2cc1O)c1ccc(C)o1	2.04 µM
Cc1cccc(NC(=O)CO/N=C/c2ccc3c(c2)OCO3)c1	10.2 µM (inactive)
CCCCCC(=O)N/N=C(\C)c1ccccn1	9.55 µM
O=C(Nc1ccccc1F)c1ccc([N+](=O)[O-])s1	0.78 µM
O=C1CCCC(O)=C1C=Nc1ccc2c(c1)oc1ccccc12	8.18 µM

Structure (SMILES)	IC50
Cc1cccc2cc(C#N)c(NCCCn3ccnc3)nc12	23.3 µM (inactive)
O=C(Nc1ncccn1)c1ccc([N+](=O)[O-])o1	8.49 µM
COc1n[nH]c(C(=O)Nc2cc(F)ccc2C)c1[N+](=O)[O-]	12.4 µM (inactive)
c1ccc2cc(OCCCn3ccnc3)ccc2c1	16.5 µM (inactive)
CSc1nn(-c2ccc(C(=O)OCC(=O)NC(=O)NC(C)C)cc2)c(=S)s1	16 µM (inactive)
Cc1ccccc1Cn1cc(NC(=O)c2noc(C(C)C)c2[N+](=O)[O-])cn1	7.58 µM
O=C(COc1c(Br)cc(Br)c2cccnc12)N1CCCCC1	9.93 µM
CC(C)(C)NCC1(CO)SC(N)=NC1=O (stereo not given)	15.5 µM (inactive)
COC(=O)c1ccc(Cn2cc(C(F)(F)F)cc([N+](=O)[O-])c2=O)cc1	1.7 µM
C/C(=N\NC(=O)c1cccc(Cl)c1)C1C(=O)c2ccccc2C1=O	0.38 µM
CCCCN1CCC(O)(c2ccccc2)C(C(=O)c2ccccc2)C1 (stereo not given)	4.86 µM
Cc1nc2c(=O)n(C)c(=O)n(C)c2nc1Cl	10.3 µM (inactive)
CC1=NN(C(=O)c2csc(C(C)C)c2)C(O)(C(F)(F)F)C1 (stereo not given)	0.36 µM
O=C(c1cccc2cccc(O)c12)N1CCCCC1	3.82 µM
COc1cc(N=c2ssnc2Cl)cc(OC)c1	19.3 µM (inactive)
CCOc1ccc(-c2cc(CCCC(=O)NCCC(C)C)no2)cc1	18.2 µM (inactive)
O=C1CCC(=O)N1CNc1ccc(Oc2ccccc2)cc1	2.02 µM
O=[N+]([O-])c1ccc2nc(SCc3cn4cc(Cl)ccc4n3)[nH]c2c1	8.17 µM
Cc1ccc(NC(=O)C2CC2c2ccccc2)cc1 (stereo not given)	15 µM (inactive)
O=C(COc1ccc(Cl)cc1)Nc1ccc(Cl)cn1	6.56 µM
CCOC(=O)COc1ccc2c(c1)C(=O)CC(C)(c1cccnc1)O2 (stereo not given)	10.2 µM (inactive)
CCOC(=O)COc1ccc2c(c1)C(=O)CC1(CCCCC1)O2	0.6 µM
CC(C)c1ccc(OCC(=O)NCc2ccccc2)cc1	19.2 µM (inactive)
